Laboratory results: US10857201B2, “NNIF and nNIF-related peptides and related methods” (UNIVERSITY OF UTAH RESEARCH FOUNDATION, priority 2016, dated 2020)

Legend:
Assay type in all cases: cell-based, human
PMN chemotaxis = assay: IL-8 induced chemotaxis, modified Boyden chamber; details: IL-8 2 ng/mL, peptides 1 nM
Method: FIG. 6D is a graph depicting chemotaxis in response to IL-8 (2 ng/mL) that was examined in a Boyden chamber assay. The dashed line indicates the response to IL-8 alone arbitrarily set at 1.
Chemotaxis by PMNs isolated from healthy adult donors was assessed using a modified Boyden chamber assay ± a 1 hour pre-incubation with nNIF (1 nM), CRISPP (1 nM), or CRISPP-SCR (1 nM). Recombinant human IL-8 (2 ng/mL) was used as the chemoattractant. Chemotaxis through a 5 micron filter was determined by counting PMNs in 10 randomly selected high-power fields as previously described (see Hill H R, et al., Lancet. 1974; 2 (7881):617-9). In separate experiments, nNIF, CRISPP, or CRISPP-SCR (all at 1 nM) were evaluated for chemoattractant activity using the same system.
Without being bound by any specific theory, it was hypothesized that placentally expressed HTRA1, a serine protease, regulates the formation of NET-inhibitory peptides through cleavage of AAT. To test this hypothesis, term and preterm placenta were assessed for HTRA1 expression via western blotting. HTRA1 and AAT plasma expression from term and preterm infants and adults were determined by ELISA. […] Carboxy-terminus fragments of AAT were detected using western blotting and mass spectrometry. […] Reactive oxygen species were assessed using flow cytometry, chemotaxis using a modified Boyden chamber assay, and bacterial killing using E. coli.

previously-formed NETs = assay: Post-treatment of previously formed NETs (dismantling); details: agent added after LPS stimulation; nNIF, CRISPP 1 nM; DNase 3.78 U/mL
Method: FIG. 4A is a series of images depicting neutrophils isolated from venous blood of healthy adults that were incubated in medium alone (Control) or activated with LPS (100 ng/mL). CRISPP (1 nM) was added at 0, 30, or 60 minutes after LPS, and the presence of NETs was assessed by live cell imaging as in FIG. 1A after an additional 1 hour of incubation (20× magnification; scale bar=100 μm). The images are representative of three separate experiments.
For selected experiments, primary PMNs were pre-incubated with autologous plasma, cord blood plasma, nNIF (0.2-70 nM), CRISPP (0.2-70 nM), nNIF-SCR (1 nM), or CRISPP-SCR (1 nM) for one hour prior to stimulation. After pre-incubation and/or stimulation, PMNs were gently washed with PBS and incubated with a mixture of cell permeable (SYTO® Green, MOLECULAR PROBES®) and impermeable (SYTOX® Orange, MOLECULAR PROBES®) DNA fluorescent dyes. Confocal microscopy was accomplished using a FV1000 IX81 confocal microscope and FLUOVIEW™ software (OLYMPUS™). Both 20× and 60× objectives were used. Z-series images were obtained at a step size of 1 μm over a range of 20 μm for each field. FLUOVIEW™ and ADOBE™ PHOTOSHOP™ CS2 software was used for image processing.

[1] = tested on: nuclear chromatin decondensation in PMNs; assay: Nuclear decondensation assay in PMA-treated neutrophils; details: PMA 20 nM; peptides 1 nM, Cl-amidine 10 μM, sivelestat 200 nM
Method: FIG. 7B is a graph depicting nuclear areas that were measured (n=4) using IMAGEJ™ software (mean nuclear pixel area per cell±SEM). Paired Student's t test, *P<0.05, § P=0.057.
FIG. 12A depicts nuclear decondensation (white arrowheads and magnified image) that were assessed as in FIGS. 7A-7E after a 1 hour preincubation in medium alone, with neutrophil elastase (NE) inhibitor sivelestat (SIVL; 200 nM), or with CRISPP or CRISPP-SCR (both 1 nM) followed by treatment with PMA (20 nM) and an additional 1 hour incubation (n=3). Green fluorescence=nuclear DNA, (60× magnification, scale bar=20 μm). Nuclear area was quantified using IMAGEJ™ software (nuclear pixel area per cell±SEM). One way ANOVA with Tukey's post hoc testing; **P<0.01, ***P<0.001.
Nuclear decondensation was identified as described (see Papayannopoulos V, et al., J Cell Biol. 2010; 191 (3):677-91). Five randomly selected high-power visual fields per sample were captured via confocal microscopy and analyzed for nuclear area using the cell-permeable, fluorescent DNA dye SYTO® Green. The nuclear pixel areas of >100 individual cells per high-power field were determined using IMAGEJ™ software (NIH).

PMN phagocytosis = assay: Phagocytosis of fluorescently labeled E. coli bioparticles; details: 4 hour incubation, peptides 1 nM
Method: FIG. 6C is a graph depicting phagocytosis of fluorescently-labeled E. coli bioparticles that were measured by microscopy after a 4 hour incubation. Treatment with cytochalasin B and D served as a control for inhibition of phagocytosis. Student's t test, *P<0.05.
PMNs were isolated from blood of healthy adult donors and resuspended in M-199 at a concentration of 2×10^6 cells/mL. Leukocytes were pre-incubated for 60 minutes under standard conditions with cytochalasin D and B (10 μM), nNIF (1 nM), CRISPP (1 nM), or CRISPP-SCR (1 nM). Following pre-incubation, PMNs were incubated with 6×10^6 E. coli bioparticles (MOLECULAR PROBES®) on a rotator for 4 hours at 37° C. in 5% […] air. The PMNs were then washed and resuspended in the starting volume of M-199 before being spun down onto glass coverslips and fixed with 2% p-FA for 10 minutes and permeabilized with 0.1% Triton-X-100 for 10 minutes. Leukocytes were stained with WGA 555 (INVITROGEN™) and TO-PRO®-3 (MOLECULAR PROBES®), and randomly selected high-power visual field images were captured using confocal microscopy. IMAGEJ™ software (NIH) was used to determine the percentage of PMNs that were positive for fluorescently labeled E. coli bioparticles detected at 488 nm.

Row | Substance | IL-8 induced chemotaxis (PMN chemotaxis) | degradation or dismantling of previously-formed NETs (previously-formed NETs) | nuclear decondensation (number of decondensed nuclei) [1] | phagocytosis (PMN phagocytosis)
1 | M_IPPEVKFNKPFVFLMIDQNTKVPLFMGK [CRISPP, consensus peptide based on factors present in the blood of patients with cancer] | did not inhibit | do not degrade or dismantle | dramatically reduced | did not inhibit
2 | KFNKPFVFLMIEQNTKSPLFMGKVVNPTQ (listed as Homo sapiens) [nNIF] | did not inhibit | do not degrade or dismantle | dramatically reduced | did not inhibit
